Data set [1] in a line: Acid dissociation constant was determined. It counts as ADME.
The target in data set [2] is T1, Sulfonylurea receptor 1, Kir6.2 (Homo sapiens, UniProt Q09428+Q14654). Description: Inhibition of Beta-cell KATP channel. The format is functional.
The target in data set [3] is Sulfonylurea receptor 1, Kir6.2 (Homo sapiens) (UniProt Q14654+Q09428). Kind of data set: Percentage of maximal agonistic response of Beta-cell KATP channel as compared to diazoxide (50 uM). The format is functional.
Data set [4] addresses T1, Sulfonylurea receptor 1, Kir6.2. Kind of data set: Negative log EC50 for Beta-cell KATP channel. It counts as functional.

Molecules are shown by their SMILES.

T1 sequence (Q14654 whole entry): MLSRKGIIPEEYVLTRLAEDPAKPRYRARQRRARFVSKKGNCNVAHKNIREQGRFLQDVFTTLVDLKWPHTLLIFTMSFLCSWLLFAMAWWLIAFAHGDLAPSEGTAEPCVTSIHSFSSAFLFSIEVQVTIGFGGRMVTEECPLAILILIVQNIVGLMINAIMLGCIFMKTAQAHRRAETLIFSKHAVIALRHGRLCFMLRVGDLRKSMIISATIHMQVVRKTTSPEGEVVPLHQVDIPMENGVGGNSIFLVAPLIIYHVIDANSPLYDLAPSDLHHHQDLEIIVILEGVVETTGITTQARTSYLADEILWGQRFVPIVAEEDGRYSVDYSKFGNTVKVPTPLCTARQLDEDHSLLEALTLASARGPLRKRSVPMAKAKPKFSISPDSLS
T1 sequence (Q09428 whole entry): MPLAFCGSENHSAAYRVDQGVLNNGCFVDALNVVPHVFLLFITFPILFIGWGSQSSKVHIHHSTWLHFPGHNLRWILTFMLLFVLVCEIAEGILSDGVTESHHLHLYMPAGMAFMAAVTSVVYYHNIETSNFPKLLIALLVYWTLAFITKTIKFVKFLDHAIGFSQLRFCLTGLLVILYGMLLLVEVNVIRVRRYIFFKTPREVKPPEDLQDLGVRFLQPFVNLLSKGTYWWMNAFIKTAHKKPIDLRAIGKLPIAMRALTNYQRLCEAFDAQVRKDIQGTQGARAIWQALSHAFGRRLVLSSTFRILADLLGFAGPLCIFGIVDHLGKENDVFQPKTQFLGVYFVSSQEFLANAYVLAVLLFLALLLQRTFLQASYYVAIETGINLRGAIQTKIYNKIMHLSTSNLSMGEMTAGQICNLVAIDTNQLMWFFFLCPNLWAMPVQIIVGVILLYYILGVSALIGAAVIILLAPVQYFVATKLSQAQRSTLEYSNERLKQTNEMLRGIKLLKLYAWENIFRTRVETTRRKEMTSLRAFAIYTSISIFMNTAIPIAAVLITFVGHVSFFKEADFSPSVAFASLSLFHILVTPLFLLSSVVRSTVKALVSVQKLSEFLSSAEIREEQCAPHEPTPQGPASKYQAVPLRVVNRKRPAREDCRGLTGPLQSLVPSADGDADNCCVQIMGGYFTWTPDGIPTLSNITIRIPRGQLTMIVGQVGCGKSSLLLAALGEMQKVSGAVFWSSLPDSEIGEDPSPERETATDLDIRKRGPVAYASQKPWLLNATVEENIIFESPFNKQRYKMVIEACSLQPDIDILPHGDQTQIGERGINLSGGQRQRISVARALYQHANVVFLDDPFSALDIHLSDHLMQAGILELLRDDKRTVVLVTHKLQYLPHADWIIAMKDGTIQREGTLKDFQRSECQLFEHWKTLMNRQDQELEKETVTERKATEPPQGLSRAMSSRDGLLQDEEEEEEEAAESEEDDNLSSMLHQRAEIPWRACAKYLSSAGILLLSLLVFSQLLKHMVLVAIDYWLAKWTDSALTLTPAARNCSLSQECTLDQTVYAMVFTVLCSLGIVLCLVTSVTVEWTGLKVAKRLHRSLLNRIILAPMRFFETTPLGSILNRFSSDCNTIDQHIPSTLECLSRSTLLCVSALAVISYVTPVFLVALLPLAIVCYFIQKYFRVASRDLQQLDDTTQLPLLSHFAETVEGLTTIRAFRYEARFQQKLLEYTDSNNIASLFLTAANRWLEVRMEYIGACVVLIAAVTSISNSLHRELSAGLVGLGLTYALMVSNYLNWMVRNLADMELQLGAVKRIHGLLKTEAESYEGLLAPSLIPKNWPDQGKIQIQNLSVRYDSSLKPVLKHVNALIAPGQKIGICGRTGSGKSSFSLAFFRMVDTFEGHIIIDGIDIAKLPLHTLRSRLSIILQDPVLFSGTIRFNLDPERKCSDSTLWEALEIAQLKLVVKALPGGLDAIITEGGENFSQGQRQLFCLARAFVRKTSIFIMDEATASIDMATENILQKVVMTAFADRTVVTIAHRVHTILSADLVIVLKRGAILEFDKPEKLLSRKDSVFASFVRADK

A word on the pKa: it is the pH at which an ionisable group is half protonated. A high value points to a weaker acid or stronger base. By EC50 is commonly meant the midpoint of the concentration-response curve. Lower therefore signals greater potency. As for `O=S1(=O)NC(NC2CCC2)=Nc2ccc(F)cc21`, the pKa in data set [1] turned out to be 9.57. The EC50 in data set [2] was 356 nM; in data set [4], 398 nM. Further, the Max in data set [3] is 136%.
The corresponding values for `O=S1(=O)N=C(NC2CCC2)Nc2ccc(Cl)cc21` are 9.36, 196 nM, 200 nM and 137%.
Turning to `COc1ccc2c(c1)S(=O)(=O)NC(NC1CCC1)=N2`, the concentration for a half-maximal effect (EC50) is 3870 nM in data set [2] and 3980 nM in data set [4]. Besides, in data set [3], the Max was 122%.
Compound `CC1=NS(=O)(=O)c2cc(Cl)ccc2N1` [DIAZOXIDE] returned a pKa in data set [1] of 8.62.
For `O=S1(=O)N=C(NC2CCC2)Nc2ccccc21`, the 50% effective concentration (EC50) in data set [2] is 1960 nM; in data set [4], 2000 nM. In addition, the Max in data set [3] was 109%.
`CC1=Nc2ccc(Cl)cc2S(=O)(=O)N1` returned a Max in data set [3] of 100%.
As to `Nc1ccc2c(c1)S(=O)(=O)NC(NC1CCC1)=N2`, the EC50 was 31000 nM in data set [2] and 31600 nM in data set [4]. Further, the Max in data set [3] is 96.9%.
Regarding `O=[N+]([O-])c1ccc2c(c1)S(=O)(=O)NC(NC1CCC1)=N2`, the pKa in data set [1] was determined as 7.89. This compound returned an EC50 in data set [2] of 530 nM. Besides, the Max in data set [3] was determined as 30.9%.

These data come from ChEMBL document CHEMBL1134916, “Synthesis and evaluation of 7-substituted-3-cyclobutylamino-4H-1,2,4-benzothiadiazine-1,1-dioxide derivatives as K(ATP) channel agonists” (Bioorg Med Chem Lett, 2002).
